Laboratory results taken from patent publication US6660494B2 (priority 2000, dated 2003).
Entries after “also recorded” stand apart in the source; their conditions may differ. Like-named read-outs stand apart in the source and are kept apart here.

Tests used:
[1] = solubility in water; format: physicochemical
[2] = stability on storage, in buffer solutions and in plating media; format: physicochemical; conditions: for stability in conventional buffer solutions: citrate/hydrochloric acid, Hepes/NaOH, Tris/HCl, boric acid/potassium chloride-sodium hydroxide, pH about 4 to about 10, ambient temperature; for stability in conventional plating media: e.g. Tryptic Soy Agar; for storage stability: temperatures below about 5° C., protected from light
[3] = target: PC-PLC from Clostridium perfringens (Clostridium perfringens, UniProt P0C216); format: biochemical
[4] = target: PC-PLC of Clostridium perfringens (Clostridium perfringens, UniProt P0C216); format: biochemical
Chain of PC-PLC of Clostridium perfringens (P0C216 29-398 limits assumed): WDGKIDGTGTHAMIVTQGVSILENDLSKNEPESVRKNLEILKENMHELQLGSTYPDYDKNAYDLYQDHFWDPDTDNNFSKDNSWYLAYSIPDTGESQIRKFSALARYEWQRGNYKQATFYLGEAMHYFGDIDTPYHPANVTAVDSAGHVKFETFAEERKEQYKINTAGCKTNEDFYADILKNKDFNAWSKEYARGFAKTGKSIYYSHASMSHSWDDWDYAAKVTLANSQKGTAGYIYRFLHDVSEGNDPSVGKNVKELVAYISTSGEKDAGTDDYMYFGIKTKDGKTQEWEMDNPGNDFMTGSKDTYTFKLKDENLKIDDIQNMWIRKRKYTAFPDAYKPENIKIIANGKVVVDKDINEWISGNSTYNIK

Chain of PC-PLC from Clostridium perfringens (P0C216 29-398 limits assumed): as above

C[N+](C)(C)CCOP(=O)([O-])Oc1c[nH]c2ccccc12 [Y-CP, 3-indoxylcholine phosphate]
solubility in water [1]: freely soluble in water | stability in conventional buffer solutions [2]: at least ten days | stability in conventional plating media [2]: stable | storage stability [2]: stable during extended periods of time

C[N+](C)(C)CCOP(=O)([O-])Oc1c[nH]c2ccc(Br)c(Cl)c12 [X-CP, 5-bromo-4-chloro-3-indoxyl choline phosphate]
solubility in water [1]: freely soluble in water | Vmax [3]: 93.6 nMol min^−1 (μg enzyme)^−1 and ≈ 94 μMol min^−1 (mg enzyme)^−1 | Vmax (rate of cleavage under saturating conditions) [3]: 312 nmol/min | cleavage at 60° C. versus ambient temperature, times faster [3]: approximately 160 | factor of increase of enzymatic activity for every 10° C. of rise in temperature [3]: 3-4 | Rate ([3]; 22° C.): 0.65 nmol/min | Specific Activity ([3]; 22° C.): 0.1 µmol/min/mg | Rate ([3]; 41° C.): 8.1 nmol/min | Specific Activity ([3]; 41° C.): 1.2 µmol/min/mg | Rate ([3]; 46° C.): 19.7 nmol/min | Specific Activity ([3]; 46° C.): 3.0 µmol/min/mg | Rate ([3]; 51° C.): 25.8 nmol/min | Specific Activity ([3]; 51° C.): 3.9 µmol/min/mg | Rate ([3]; 55° C.): 48.5 nmol/min | Specific Activity ([3]; 55° C.): 7.3 µmol/min/mg | Rate ([3]; 60° C.): 106.8 nmol/min | Specific Activity ([3]; 60° C.): 16.0 µmol/min/mg | Km ([3]; read-out: Km (Michaelis-Menten constant)): ~42 mM | additional effect on cleavage rate when these detergents/surfactants are combined with BSA [4]: no additional enhancement | effect of detergent/surfactant additive on cleavage rate of the enzyme [4]: slight enhancement | color of the solution ([4]; pH 7): Bluish; also recorded: Colorless; also recorded: Pale blue; also recorded: Light blue; also recorded: Colorless* | stability in conventional buffer solutions [2]: at least ten days | stability in conventional plating media [2]: stable | storage stability [2]: stable during extended periods of time
